Assay results taken from patent US6476263B1, “Compounds for inhibiting β-amyloid peptide release and/or its synthesis” (Elan Pharmaceuticals, Inc., priority 1996, dated 2002).

SMILES	melting point
CC(C)COC(=O)[C@H](C)NC(=O)[C@@H](NC(=O)[C@@H](NC(=O)CC(C)C)C(C)C)c1ccccc1 [Example 83, N-[N-[N-(Isovaleryl)-L-valinyl]-L-phenylglycinyl]-L-alanine iso-butyl Ester]	217 to 221 °C
CC[C@H](NC(=O)[C@H](C)NC(=O)Cc1cc(F)cc(F)c1)C(=O)OC [Example 160, Methyl N-[N-(3,5-difluorophenylacetyl)-L-alaninyl]-(S)-2-aminobutanoate]	103 to 106 °C
CC(C)(C)OC(=O)[C@@H](NC(=O)[C@@H](NC(=O)CC1CCCC1)c1ccccc1)c1ccccc1 [Example 265, N-[N-(Cyclopentylacetyl)-L-phenylglycinyl]-L-phenylglycine tert-Butyl Ester]	190.8 °C
CCOC(=O)[C@H](Cc1ccc(O)cc1)NC(=O)[C@H](C)NC(=O)Cc1cccc([N+](=O)[O-])c1 [Example 81, N-[N-(3-Nitrophenylacetyl)-L-alaninyl]-L-tyrosine Ethyl Ester]	117 to 119 °C
CCOC(=O)C(C)(NC(=O)[C@H](C)NC(=O)Cc1cc(F)cc(F)c1)c1ccccc1 (stereo partly drawn) [Example 123, Ethyl N-[N-(3,5-Difluorophenylacetyl)-L-alaninyl]-2-amino-2-phenylpropionate]	128 to 130 °C
CCOC(=O)C(NC(=O)[C@H](C)NC(=O)Cc1cc(F)cc(F)c1)c1cccnc1 (stereo partly drawn) [Example 53, Ethyl N-[N-(3,5-Difluorophenylacetyl)-L-alaninyl]-2-amino-2-(3-pyridyl)acetate]	146 to 157 °C
C=CCCC(=O)N[C@@H](C)C(=O)N[C@@H](Cc1ccccc1)C(=O)OC [Example 11, N-[N-(Pent-4-enoyl)-L-alaninyl]-L-phenylalanine Methyl Ester]	125.5 to 126.5 °C
COC(=O)[C@H](Cc1ccccc1)NC(=O)[C@H](C)NC(=O)Cc1ccncc1 [Example 133, N-[N-(4-Pyridylacetyl)-L-alaninyl]-L-phenylalanine Methyl Ester]	152 to 154 °C
COC(=O)[C@@H](NC(=O)[C@H](C)NC(=O)[C@H](C)NC(=O)Cc1cc(F)cc(F)c1)c1ccccc1 [Example 112, N-[N-[N-(3,5-Difluorophenylacetyl)-L-alaninyl]-L-alaninyl]-L-phenylglycine Methyl Ester]	243 to 245 °C
CCOC(=O)C(NC(=O)[C@H](C)NC(=O)Cc1cc(F)cc(F)c1)C1CCCCC1 (stereo partly drawn) [Example 126, Ethyl N-[N-(3,5-Difluorophenylacetyl)-L-alaninyl]-2-amino-2-cyclohexylacetate]	146 to 150 °C
COC(=O)[C@H](CCc1ccccc1)NC(=O)[C@H](C)NC(=O)Cc1cc(F)cc(F)c1 [Example 44, Methyl N-[N-(3,5-Difluorophenylacetyl)-L-alaninyl]-(S)-2-amino-4-phenylbutanoate]	147 to 149.5 °C
COC(=O)C(NC(=O)[C@H](C)NC(=O)Cc1cc(F)cc(F)c1)c1cccc(C(F)(F)F)c1 (stereo partly drawn) [Example 183, Methyl N-[N-(3,5-Difluorophenylacetyl)-L-alaninyl]-2-amino-2-(3-trifluoromethylphenyl)acetate]	133 to 134 °C
COC(=O)[C@H](Cc1cccnc1)NC(=O)[C@H](C)NC(=O)Cc1cc(F)cc(F)c1 [Example 20, Methyl N-[N-(3,5-Difluorophenylacetyl)-L-alaninyl]-(S)-2-amino-3-(3-pyridyl)propionate]	101 to 103 °C
COC(=O)[C@H](Cc1ccccc1)NC(=O)[C@H](C)NC(=O)Cc1ccccc1 [Example 204, N-[N-(Phenylacetyl)-L-alaninyl]-L-phenylalanine Methyl Ester]	148 to 149.5 °C
COC(=O)[C@H](Cc1cscn1)NC(=O)[C@H](C)NC(=O)Cc1cc(F)cc(F)c1 [Example 31, Methyl N-[N-(3,5-Difluorophenylacetyl)-L-alaninyl]-(S)-2-amino-3-(thiazol-4-yl)propionate]	136 to 139 °C
